Reference: patent US10799477B2, “Pharmaceutical composition for preventing or treating LDL cholesterol-related diseases, containing ribosome-binding preparation” (PUSAN NATIONAL UNIVERSITY INDUSTRY UNIVERSITY, priority 2016, dated 2020)

Assays:
HCT-8 cells = assay: Lipid droplets in HCT-8 cells, Oil Red O staining; assay type: cell-based, human; conditions: 1000 mg/ml DON or 2 μM ANS, 24 h, FIG. 2
Description: To confirm the effect of ribosome inactivation on fat accumulation, enterocyte and hepatocyte exposed to ribosome inactivation stress using the ribosome-binding agent were stained with Oil Red O.
Specifically, HCT-8 cells and HepG2 cells were obtained from the American Type Culture Collection (ATCC Rockville, Md., USA). HCT-8 and HepG2 cells were treated with vehicle, […], or 2 μM anisomycin (ANS) for 24 h. […] The staining results of HCT-8 cells are illustrated in FIG. 2 and the staining results of HepG2 cells are illustrated in FIG. 3.

LDLR [1] = assay: mRNA level of LDLR in HCT-8 cells, real-time RT-PCR; assay type: cell-based, human; conditions: HCT-8 cells, 100, 500, 1000 ng/ml DON or 500, 1000, 2000 nM ANS, 2 hours, dose dependent, FIG. 10
Description: Further, HCT-8 cells were treated with vehicle or 1000 ng/ml DON for the indicated time. In these treated cells, an mRNA level of LDLR was measured using real-time RT-PCR. Specifically, RNA was extracted using RiboEX (GeneAll Biotechnology, Seoul, Korea). Subsequently, the RNA (100 ng) from each sample was transcribed into cDNA using Prime Moloney murine leukemia virus reverse transcriptase (Genetbio, Nonsan, South Korea). The cDNA was then amplified using n-Taq DNA polymerase (Enzynomics, Seoul, South Korea). The amplified cDNA was treated at 95° C. for 2 minutes. The cDNA was then treated for 30 seconds at 95° C., for 30 seconds at 58° C. and for 30 seconds at 72° C. at each of different cycles. The thus treated cDNA was amplified and the amplification thereof was confirmed by electrophoresis. FAM was used as a fluorescent reporter staining drug. FAM was conjugated to a 5′ terminal of a product of the amplified cDNA. The resulting product was subjected to real-time RT-PCR using an iCycler thermal cycler (Bio-Rad). […]
Additionally, to determine the effect of chemical ribosome inactivators (DON, ANS) at different doses on the LDLR expression level, HCT-8 cells were treated with vehicle, 0, 100, 500, 1000 ng/ml DON or 0, 500, 1000, 2000 nM ANS for 2 hours. Then, mRNA levels of LDLR in the cells were measured using real-time RT-PCR. […] The mRNA level of the LDLR of the cells was measured. […]

LDLR [2] = assay: mRNA level of LDLR in HepG2 cells, real-time RT-PCR; assay type: cell-based, human; conditions: HepG2 cells, 100, 500, 1000 ng/ml DON or 500, 1000, 2000 nM ANS, 1 hour, dose dependent, FIG. 11
LDLR [3] = assay: Protein level of LDLR in HCT-8 cells, Western blot; assay type: cell-based, human; conditions: whole cell lysates, FIG. 9
Description: Further, HCT-8 cells were treated with vehicle or 1000 ng/ml DON for the indicated time. Thereafter, protein levels of LDLR were measured using whole cell lysates via Western blots. Specifically, the cells were washed with phosphate buffer. Subsequently, the cells were dissolved in lysis buffer (1% [w/v] SDS, 1.0 mM sodium orthovanadate, and 10 mM Tris [pH 7.4]). The lysate was sonicated for 5 seconds. The lysate was quantitated using the BCA protein assay kit (Pierce, Rockford, Ill., USA). Subsequently, immunoblotting was carried out to confirm the level of the protein in the cells. The results are illustrated in FIG. 9.

LDLR [4] = assay: LDLR immunohistochemistry in ileum and jejunum of mice fed DON; assay type: in vivo; conditions: 25 mg/kg DON oral feeding, after 24 hours, IHC, FIG. 12
Description: Further, additional animal studies were performed to determine whether ribosome-inactivation stress increases a level of LDLR expression in the small intestine. Six-week-old male B6C3F1 mice (C57B1/6J×C3H/HeJ) were purchased from Samtako Bio Korea (Osan, South Korea). Animal experiments were performed according to the animal test method as approved in the Laboratory Animal Care Committee (PNU-2010-0291). Vehicle or 25 mg/kg DON was administered to the mice via oral feeding. After 24 hours, immunohistochemistry (IHC) was performed on ileum and jejunum to measure LDLR expression levels. The results are illustrated in FIG. 12.

SMILES	fat accumulation in HCT-8 cells (HCT-8 cells)	mRNA level of LDLR (LDLR [1])	mRNA level of LDLR (LDLR [2])	protein levels of LDLR (LDLR [3])	level of LDLR expression in the mouse small intestine (villus epithelium of ileum and jejunum) (LDLR [4])
COc1ccc(C[C@H]2NC[C@H](O)[C@H]2OC(C)=O)cc1 [ANS, anisomycin]	dose-dependently increased	increases	increases	increases	
CC1=C[C@H]2O[C@@H]3[C@H](O)C[C@](C)([C@@]2(CO)[C@H](O)C1=O)[C@]31CO1 [DON, deoxynivalenol]	dose-dependently increased	increases	increases	increases	increase
